Measured values taken from ChEMBL document CHEMBL6103573, “Discovery of novel thienopyridine indole derivatives as inhibitors of tubulin polymerization targeting the colchicine-binding site with potent anticancer activities” (Eur J Med Chem, 2025).
Activity calls are given as the source filed them. The rule behind the calls is not given here.

Legend:
[1] = tested on: KYSE-450; assay: Antiproliferative activity against human KYSE-450 cells assessed as inhibition of cell proliferation incubated for 48 hrs by MTT assay; format: functional, cell-based; conditions: KYSE-450, 48 h
[2] = tested on: HGC-27; assay: Induction of apoptosis in human HGC-27 cells assessed as early apoptotic cells at 1.0 nmol/L incubated for 48 hrs by Annexin V-FITC/propidium iodide staining based flow cytometry analysis (reference value: 2.04 %); format: functional
[3] = tested on: NCI-N87; assay: Antiproliferative activity against human NCI-N87 cells assessed as inhibition of cell proliferation incubated for 48 hrs by MTT assay; format: functional, cell-based; conditions: NCI-N87, 48 h
[4] = tested on: MGC-803; assay: Induction of apoptosis in human MGC-803 cells assessed as increase in nuclei brightness at 0.25 to 2.0 nmol/L incubated for 48 hrs by DAPI staining based analysis; format: functional, cell-based; conditions: dose 0.25-2 nmol/L

Question: How did the IC50 [1] turn out when `CN(c1ccc2c(ccn2C)c1)c1nc(N2CCCC2)nc2sccc12` was run?
Answer: 3.16 nM

Question: What about the Activity [2] of the same compound?
Answer: 11.52%

Question: What about the IC50 [3] of the same compound?
Answer: 2.14 nM

Question: What about the Activity [4] of the same compound?
Answer: Active
